Here are results for two compounds from US8569279B2, “Method for modulating claudin mediated functions” (Sucampo AG, priority 2008, dated 2013).

Test [1] deals with epithelial tight junction, mouse intestine (jejunum mucosa). Put plainly: Tissue conductance and dilution potentials in normal mouse intestines after Compound A in drinking water. In kind it is in vivo. The settings on record: male C57BL/6 mice, 10 μM in drinking water for 7 to 14 days, jejunum mucosa in chamber, FIG. 1. Here is the method:
(Method) Male C57BL/6 mice (7-8 weeks old) were administered with 10 μM Compound A in the drinking water and fed standard diet for 7 to 14 days. During the period, the mice could drink the water freely. At the conclusion of this period, the mice were sacrificed and the intestines were removed. Approximately 5 cm sections were cut from tip of the jejunum. The intestine section was opened from ventral side, and then it was washed several Limes with Ringer solution. The mucosa of the intestine was carefully stripped from the serosa using forceps. The mucosa was mounted in a standard chamber (5 mm in diameter of exposed surface area) and bathed with buffer solution. Transepithelial short-circuit current (Isc) was measured and total tissue conductance was determined by measuring the current deflections resulting from a 1 mV/min transepithelial pulse and applying Ohm's law. When stable measurement of Isc was achieved, the buffer solution was replaced with potassium-free solution. The solution in the luminal bath were then replaced with the solution containing […], 150 mM LiCl, 150 mM KCl, 75 mM MgCl2 and 75 mM CaCl2, in turn, and dilution potentials in each solution were measured.

In a further test the test system is claudin-15 protein. Kind of test: Expression of claudin proteins in mouse intestine (immunofluorescence staining). In kind it is in vivo. The settings on record: 10 μM in drinking water for 7 to 14 days, immunofluorescence staining of frozen slices, FIG. 2. On the procedure: (Method) Treatment of mice and removal of intestine were conducted by similar way mentioned above. The removed intestine was frozen in liquid nitrogen and frozen slices were prepared. Expressions and intracellular distribution of claudin-15 protein were determined with immunofluorescence staining. […] (Conclusion) Continuous administration of Compound A caused expression changes of tight junction proteins, such as the decrease of claudin-15 which induces changes of electrophysiological property of the tight junction. Decrease of the expression of claudin-15 in the tight junction resulted to enhance the tightness of the tight junction and strengthen the epithelial sheet against toxic substances.

Test [2] deals with skin ulcer and/or bedsore animal model, db/db mice. Put plainly: Skin ulcer healing in genetically-diabetic mice (db/db mice). In kind it is in vivo, mouse. The settings on record: topical twice a day for 12 days; for Ulcer area, %: Day 13 relative to Day 1, mean ± standard error, control 70.0 ± 5.7. The source says:
Female BKS.Cg−+Lepr^db/+Lepr^db/Jcl mice (db/db mice, SPF; CLEA Japan, Inc.), genetically-diabetic mice, were used for the present study. After the removal of the dorsal hair, the skin covering an area of 1.5×1.5 cm centered on the dorsal median was excised using ophthalmic scissors under anesthesia to make a skin ulcer and/or bedsore animal model. Then the excised skin area (ulcer area) was covered with porous film dressing measuring 4×4 cm. The dosing preparation was applied to the ulcer area at a dosage volume of 0.1 mL per site. The application was performed twice a day for 12 days from the day of preparation of the ulcers. Compound B: (−)-7-{(2R,4aR,5R,7aR)-2-[(3S)-1,1-difluoro-3-methylpentyl]-2-hydroxy-6-oxooctahydrocyclopenta[b]pyran-5-yl}heptanoic acid at 10 or 30 micro-g/site was applied to the ulcer per time. The same volume of the vehicle (physiological saline solution containing 1% polysorbate 80: 1% PS80) was applied to the animals in the control group. The day of the start of the application was defined as Day 1. On the Day 1 and Day 13, the frontal edge of the epidermis or the regeneration epidermis of each ulcer was traced on a plastic sheet. The traced ulcer area was measured with an area-line meter. The ulcer area (%) on Day 13 was calculated on the basis of the ulcer area on Day 1. Group mean values with standard errors were calculated for ulcer area (%).

With `CCCCC(F)(F)[C@@]1(O)CC[C@H]2[C@@H](CC(=O)[C@@H]2CCCCCCC(=O)O)O1` [Compound A, (−)-7-[(2R,4aR,5R,7aR)-2-(1,1-Difluoropentyl)-2-hydroxy-6-oxooctahydrocyclopenta[b]pyran-5-yl]heptanoic acid], in test [1], the “dilution potential of univalent cations compared to no-treatment group” value is given as “decrease” and the “total tissue conductance compared to no-treatment group” value was “decrease”. In addition, the “expression of claudin-15 protein” value with claudin-15 protein is listed as “decreased”.
As for `CC[C@H](C)CC(F)(F)[C@@]1(O)CC[C@H]2[C@@H](CC(=O)[C@@H]2CCCCCCC(=O)O)O1` [Compound B, (−)-7-{(2R,4aR,5R,7aR)-2-[(3S)-1,1-difluoro-3-methylpentyl]-2-hydroxy-6-oxooctahydrocyclopenta[b]pyran-5-yl}heptanoic acid], in test [2] (10 and 30 micro-g/site), the “ulcer healing as compared to the control group” value is “significantly accelerated the ulcer healing”. Besides, the “Ulcer area, %” value in test [2] (10 micro-g/site) came out at 43.1 ± 4.2 %; in test [2] (30 micro-g/site), 41.1 ± 3.1 %.
